Values quoted from earlier work, collected in PubChem BioAssay AID1259409 (Chemical Carcinogenesis Research Information System (CCRIS), 2018).

Test system: rodent chemically induced tumor inhibition, incidence and multiplicity
Assay: CCRIS tumor inhibitor studies
Settings: for outcome: Target Tissue: Type of Lesion: SKIN: TUMOR, Dose [Carcinogen]: 40 NMOL IN 0.2 ML ACETONE ONCE

Row | Compound | tumour outcome (control, treated, inhibition, significance) (Carcinogen: 7,12-DIMETHYLBENZ[A]ANTHRACENE, 57-97-6, Dose [Inhibitor]: 0, 1.1 UMOL 1/WK FOR 27 WK APPLIED 1 HR POST EACH PROMOTER DOSE (STUDY DURATION: 27 WK), Route [Inhibitor]: DERMAL, Species: MOUSE, Strain/Sex: SENCAR/FEMALE, Target Tissue: Type of Lesion: SKIN: PAPILLOMA, Dose [Carcinogen]: 25 NMOL ONCE, Promoter: CHRYSAROBIN, 491-58-7) | tumour outcome (control, treated, inhibition, significance) (Carcinogen: 7,12-DIMETHYLBENZ[A]ANTHRACENE, 57-97-6, Dose [Inhibitor]: 0, 4.4 UMOL 1/WK FOR 27 WK APPLIED 1 HR POST EACH PROMOTER DOSE (STUDY DURATION: 27 WK), Route [Inhibitor]: DERMAL, Species: MOUSE, Strain/Sex: SENCAR/FEMALE, Target Tissue: Type of Lesion: SKIN: PAPILLOMA, Dose [Carcinogen]: 25 NMOL ONCE, Promoter: CHRYSAROBIN, 491-58-7) | outcome (Carcinogen: 7,12-DIMETHYLBENZ[A]ANTHRACENE, 57-97-6, Dose [Inhibitor]: 0, 10 UMOL IN 0.2 ML DMSO/ACETONE (1:2) 1/D BEGINNING 7 D PRIOR TO CARCINOGEN DOSE (STUDY DURATION: 16 WK), Route [Inhibitor]: DERMAL, Species: MOUSE, Strain/Sex: SENCAR/FEMALE) | outcome (Carcinogen: 7,12-DIMETHYLBENZ[A]ANTHRACENE, 57-97-6, Dose [Inhibitor]: 0, 30 UMOL IN DMSO/ACETONE (1:2) 30 MIN PRIOR TO EACH PROMOTER DOSE (STUDY DURATION: 16 WK), Route [Inhibitor]: DERMAL, Species: MOUSE, Strain/Sex: SENCAR/FEMALE) | tumour outcome (control, treated, inhibition, significance) (Carcinogen: 7,12-DIMETHYLBENZ[A]ANTHRACENE, 57-97-6, Dose [Inhibitor]: 10 UMOL APPLIED 40 MINUTES PRIOR TO PROMOTER DOSE (STUDY DURATION: 20 WK), Route [Inhibitor]: DERMAL, Species: MOUSE, Strain/Sex: ICR/FEMALE, Target Tissue: Type of Lesion: SKIN: PAPILLOMA, Dose [Carcinogen]: 100 UG ONCE) | tumour outcome (control, treated, inhibition, significance) (Carcinogen: AZOXYMETHANE, 25843-45-2, Dose [Inhibitor]: 0, 1200 PPM IN DIET BEGINNING 1 WK PRIOR TO CARCINOGEN TREATMENT FOR DURATION OF STUDY (STUDY DURATION: 54 WK), Route [Inhibitor]: ORAL, Species: RAT, Strain/Sex: F344/MALE, Target Tissue: Type of Lesion: COLON: ADENOCARCINOMA, Dose [Carcinogen]: 15 MG/KG/BW 1/WK FOR 2 WK, Promoter: NONE USED) | tumour outcome (control, treated, inhibition, significance) (Carcinogen: AZOXYMETHANE, 25843-45-2, Dose [Inhibitor]: 0, 1200 PPM IN DIET BEGINNING 1 WK PRIOR TO CARCINOGEN TREATMENT FOR DURATION OF STUDY (STUDY DURATION: 54 WK), Route [Inhibitor]: ORAL, Species: RAT, Strain/Sex: F344/MALE, Target Tissue: Type of Lesion: COLON: ADENOMA, Dose [Carcinogen]: 15 MG/KG/BW 1/WK FOR 2 WK, Promoter: NONE USED) | tumour outcome (control, treated, inhibition, significance) (Carcinogen: AZOXYMETHANE, 25843-45-2, Dose [Inhibitor]: 0, 2400 PPM IN DIET BEGINNING 1 WK PRIOR TO CARCINOGEN TREATMENT FOR DURATION OF STUDY (STUDY DURATION: 54 WK), Route [Inhibitor]: ORAL, Species: RAT, Strain/Sex: F344/MALE, Target Tissue: Type of Lesion: COLON: ADENOMA, Dose [Carcinogen]: 15 MG/KG/BW 1/WK FOR 2 WK, Promoter: NONE USED) | tumour outcome (control, treated, inhibition, significance) (Carcinogen: AZOXYMETHANE, 25843-45-2, Dose [Inhibitor]: 0, 2400 PPM IN DIET BEGINNING 1 WK PRIOR TO CARCINOGEN TREATMENT OF DURATION OF STUDY (STUDY DURATION: 54 WK), Route [Inhibitor]: ORAL, Species: RAT, Strain/Sex: F344/MALE, Target Tissue: Type of Lesion: COLON: ADENOCARCINOMA, Dose [Carcinogen]: 15 MG/KG/BW 1/WK FOR 2 WK, Promoter: NONE USED)
1 | CCN(CC)CCCCCCCCOC(=O)c1cc(OC)c(OC)c(OC)c1 | 85%, 73%, 14%, not significant | 85%, 82%, 4%, not significant | – | – | – | – | – | – | –
2 | CC1(C)[C@@H](O)CC[C@]2(C)[C@H]3C(=O)C=C4[C@@H]5C[C@@](C)(C(=O)O)CC[C@]5(C)CC[C@@]4(C)[C@]3(C)CC[C@@H]12 | – | – | 100%, 45%, 55%, not calculated at 9 wk; 100%, 85%, 15%, not calculated at 16 wk | 100%, 40%, 60%, not calculated at 9 wk; 100%, 80%, 20%, not calculated at 16 wk | 100%, 40%, 60%, p<0.05 | 58%, 78%, -35%, not calculated | 6%, 6%, 0%, not calculated | 6%, 6%, 0%, not significant | 58%, 53%, 9%, not calculated
